Entries after “also recorded” stand apart in the source; their conditions may differ.
Experiments:
[1] = Comparative test on stability: destruction experiment, related substances by HPLC; assay type: physicochemical
Experimental: The methods of destruction experiment of the Polymorph I and II of this invention (hereinafter referred to as ‘Polymorph I’ and ‘Polymorph II’) contrasting with the Polymorph A of Dasatinib prepared by the method in CN200580011916.6 (hereinafter referred to as ‘916.6 Polymorph A’) and results of stability are followed:
Oxidation destruction: 50 mg of sample weighted accurately was added into measuring flask of 100 mL, and 10 mL 30% H2O2 was added. After standing at room temperature for 2 hour, the mixture was diluted with mobile phase to scale and shook to be homogeneous, and determined by HPLC.
(§1) Acid destruction: 50 mg of sample weighted accurately was added into measuring flask of 100 mL, and 10 mL 1 mol/L HCl solution was added. After standing at 40° C. for 1 hour, an equal amount of 1 mol/L NaOH solution was added for neutralization. Then the mixture was diluted with mobile phase to scale and shook to be homogeneous, and determined by HPLC.
as §1, with “Alkali” for “Acid”, “NaOH” for “HCl”, “HCl” for “NaOH”
Illumination destruction: 50 mg of sample weighted accurately was added into measuring flask of 100 mL, dissolved and diluted with mobile phase to be the solution containing 0.5 mg Dasatinib per milliliter. After standing under illumination of 4000 lx for 6 hour, the mixture was determined by HPLC.
High temperature destruction: 50 mg of sample weighted accurately was added into measuring flask of 100 mL, dissolved and diluted with mobile phase to be the solution containing 0.5 mg Dasatinib per milliliter. After standing in homothermal water bath of 60° C. for 4 hour, the mixture was cooled and then determined by HPLC.
Related Substances Determination
HPLC conditions and system applicability: octadecylsilane bonded silica as the filler; 0.05 mol/L of potassium dihydrogen phosphate (adjusted to pH 2.5 by phosphoric acid, 0.2% triethylamine)-methanol (45:55) as the mobile phase; detection wavelength was 230 nm; the number of theoretical plates should be not less than 2000, calculated according to the peak of Dasatinib. The resolution of the peak of Dasatinib from the peaks of adjacent impurities should meet requirements.
Determination method: sample was dissolved in mobile phase to be the solution containing 0.5 mg per milliliter. 20 μL of such solution was injected into liquid chromatograph, and chromatogram was recorded until the sixfold retention time of major component peak. If there were impurities peaks in the chromatogram of sample solution, total impurities and any single impurity were calculated by normalization method on the basis of peak area.

[2] = Stability in water compared with polymorph A of CN200580011916.6
[3] = Photostability test (4500 ± 500 Lx); assay type: physicochemical; conditions: for Appearance / Content / Related substance: 4500 ± 500lx
Excerpt: The conditions and methods of related substance test involved in this invention was in accordance with HPLC (Appendix VD of Chinese Pharmacopoeia, Vol. II, (2005)).
Chromatographic conditions and system applicability:
octadecylsilane bonded silica as the filler; 0.05 mol/L of potassium dihydrogen phosphate (adjusted to pH 2.5 by phosphoric acid)-methanol (45:55) as the mobile phase; detection wavelength was 230 nm; the number of theoretical plates should be not less than 2000, calculated according to the peak area of Dasatinib. The resolution of the peak of Dasatinib from the peaks of adjacent impurities should meet requirements.
Test Method: the sample was weight and dissolved into mobile phase to be the solution containing 0.5 mg per mL, and 20 μL of this solution was taken and injected into liquid chromatography. Chromatogram was recorded until it is 6 times as the retention time of the main peak.
(§2) The Polymorph I of Dasatinib monohydrate was distributed homogeneously in open petri dish with the thickness of the raw material not more than 5 mm, and the distance was adjusted to make illumination intensity at 4500±500 Lx. Sample was tested at the 5th and 10th day respectively and the results were contrasted with that of the Day 0. Results were listed in Tab. 2.
as §2, with “II” for “I”, “Dasatinib” for “Dasatinib monohydrate”, “7.” for “2.”

[4] = Stability of polymorph in the formulations (XRPD and relative substances after formulation); assay type: physicochemical; conditions: for Change of relative substances of bulk drug in the formulation (in words): after formulation into capsules or tablets; for Change of crystalline form after being formulated: capsules or tablets, XRPD
Excerpt: Stability of Polymorph in the Formulations
The XRPD patterns of capsules and tablets respectively prepared in the Example 3 and Example 4 have been tested, and compared with XRPD characteristic peaks of Polymorph I of Dasatinib prepared by the Method A in the Example 1 in the present invention, as listed in the following table:
In addition, The relative substances of capsules and tablets respectively prepared in the Example 3 and Example 4 have been tested, and compared with those of Polymorph I of Dasatinib prepared by the Method A in the Example 1 in the present invention, as listed in the following table: […]

[5] = 1 mol/L acid destruction (HCl, 40° C., 1 hour)
[6] = 1 mol/L alkali destruction (NaOH, 40° C., 1 hour)
[7] = high temperature destruction (60° C. water bath, 4 hour, in solution)
[8] = illumination destruction (4000 lx, 6 hour, in solution)
[9] = oxidation destruction (30% H2O2, room temperature, 2 hour)

## Cc1nc(Nc2ncc(C(=O)Nc3c(C)cccc3Cl)s2)cc(N2CCN(CCO)CC2)n1 [Polymorph I, N-(2-chloro-6-methylphenyl)-2-[[6-[4-(2-hydroxyethyl)-1-piperazinyl]-2-methyl-4-pyrimidyl]amino]-5-thiazolformamide]
[1]; 1 mol/L acid destruction
  Impurity tR4.102: 0.02%
  Impurity tR4.987: 0.01%
  Impurity tR5.603: 0.02%
[1]; [5]
  Total impurities: 0.06%
[1]; 1 mol/L alkali destruction
  Impurity tR4.130: 0.02%
  Impurity tR5.089: 0.01%
  Impurity tR5.501: 0.02%
[1]; [6]
  Total impurities: 0.08%
[1]; before destruction
  Impurity tR4.113: 0.02%
  Impurity tR5.037: 0.01%
  Impurity tR5.535: 0.03%
  Total impurities: 0.07%
[1]; high temperature destruction
  Impurity tR3.569: 0.01%
  Impurity tR4.120: 0.02%
  Impurity tR5.088: 0.01%
  Impurity tR5.520: 0.02%
[1]; [7]
  Total impurities: 0.05%
[1]; illumination destruction
  Impurity tR2.199: 0.04%
  Impurity tR2.527: 0.06%
  Impurity tR2.911: 0.33%
  Impurity tR3.734: 0.11%
  Impurity tR4.119: 0.04%
  Impurity tR4.585: 0.08%
  Impurity tR5.089: 0.03%
  Impurity tR5.502: 0.14%
  Impurity tR5.996: 0.08%
  Impurity tR10.096: 0.66%
[1]; [8]
  Total impurities: 1.28%
[1]; oxidation destruction
  Impurity tR3.719: 0.06%
  Impurity tR4.108: 0.02%
  Impurity tR4.568: 0.04%
  Impurity tR5.090: 0.01%
  Impurity tR5.508: 0.06%
  Impurity tR6.467: 0.05%
  Impurity tR9.476: 1.058%
[1]; [9]
  Total impurities: 1.32%
[2]
  Stability in water by comparison to polymorph A of CN200580011916.6: better stability in water
[3]; day 0
  Appearance: white powder
  Content: 99.7%
  Related substance: 0.07%
[3]; day 5
  Appearance: white powder
  Content: 99.6%
  Related substance: 0.21%
[3]; day 10
  Appearance: white powder
  Content: 99.4%
  Related substance: 0.34%
[3]; summary of 10-day test
  Change of content in photostability test (in words): of some drop
  Change of related substances in photostability test (in words): increased slightly
[4]
  Change of relative substances of bulk drug in the formulation (in words): didn't increase; also recorded: no significantly changes
  Change of crystalline form after being formulated: no substantially change; also recorded: substantially no change
[4]; bulk drug vs capsules and tablets of Examples 3 and 4
  Relative substances: 0.07%

## Cc1nc(Nc2ncc(C(=O)Nc3c(C)cccc3Cl)s2)cc(N2CCN(CCO)CC2)n1 [Polymorph II, N-(2-chloro-6-methylphenyl)-2-[[6-[4-(2-hydroxyethyl)-1-piperazinyl]-2-methyl-4-pyrimidyl]amino]-5-thiazolformamide]
[1]; 1 mol/L acid destruction
  Impurity tR4.101: 0.01%
  Impurity tR4.993: 0.01%
  Impurity tR5.604: 0.02%
[1]; [5]
  Total impurities: 0.06%
[1]; 1 mol/L alkali destruction
  Impurity tR3.580: 0.01%
  Impurity tR4.131: 0.02%
  Impurity tR5.092: 0.01%
  Impurity tR5.512: 0.02%
  Impurity tR9.424: 0.01%
[1]; [6]
  Total impurities: 0.08%
[1]; before destruction
  Impurity tR4.114: 0.02%
  Impurity tR5.049: 0.01%
  Impurity tR5.473: 0.02%
  Total impurities: 0.06%
[1]; high temperature destruction
  Impurity tR3.567: 0.01%
  Impurity tR4.117: 0.01%
  Impurity tR5.085: 0.01%
  Impurity tR5.507: 0.02%
[1]; [7]
  Total impurities: 0.06%
[1]; illumination destruction
  Impurity tR2.197: 0.05%
  Impurity tR2.526: 0.05%
  Impurity tR2.910: 0.02%
  Impurity tR3.733: 0.11%
  Impurity tR4.116: 0.04%
  Impurity tR4.582: 0.07%
  Impurity tR5.084: 0.02%
  Impurity tR5.496: 0.15%
  Impurity tR5.990: 0.06%
  Impurity tR10.084: 0.78%
[1]; [8]
  Total impurities: 1.36%
[1]; oxidation destruction
  Impurity tR4.393: 0.02%
  Impurity tR4.567: 0.03%
  Impurity tR5.090: 0.01%
  Impurity tR5.510: 0.07%
  Impurity tR6.468: 0.04%
  Impurity tR9.486: 1.00%
[1]; [9]
  Total impurities: 1.19%
[2]
  Stability in water by comparison to polymorph A of CN200580011916.6: better stability in water
[3]; day 0
  Content: 99.8%
  Related substance: 0.06%
[3]; day 5
  Content: 99.6%
  Related substance: 0.22%
[3]; day 10
  Content: 99.3%
  Related substance: 0.36%
[3]; summary of 10-day test
  Change of appearance in photostability test (in words): no obvious change
  Change of content in photostability test (in words): of some drop
  Change of related substances in photostability test (in words): increased slightly
[4]
  Change of relative substances of bulk drug in the formulation (in words): didn't increase
  Change of crystalline form after being formulated: no substantially change
